Experimental data as given in patent US7265103B2, “Substituted amino isoxazoline derivatives and their use as anti-depressants” (Janssen Pharmaceutica NV., priority 2002, dated 2007).

Experiments:
[1] = biological target: T1, hα2A receptor (Homo sapiens, UniProt P08913); experiment: Radioligand binding experiment for α2A-adrenergic receptor ([3H]-raulwolscine); details: CHO cell membranes with human α2A receptor, [3H]raulwolscine 1 nM; read-out: pIC50 α2A (converted)
T1 construct: expressed in transfected cells; host or cells: CHO cells
T1 sequence (P08913 1-465): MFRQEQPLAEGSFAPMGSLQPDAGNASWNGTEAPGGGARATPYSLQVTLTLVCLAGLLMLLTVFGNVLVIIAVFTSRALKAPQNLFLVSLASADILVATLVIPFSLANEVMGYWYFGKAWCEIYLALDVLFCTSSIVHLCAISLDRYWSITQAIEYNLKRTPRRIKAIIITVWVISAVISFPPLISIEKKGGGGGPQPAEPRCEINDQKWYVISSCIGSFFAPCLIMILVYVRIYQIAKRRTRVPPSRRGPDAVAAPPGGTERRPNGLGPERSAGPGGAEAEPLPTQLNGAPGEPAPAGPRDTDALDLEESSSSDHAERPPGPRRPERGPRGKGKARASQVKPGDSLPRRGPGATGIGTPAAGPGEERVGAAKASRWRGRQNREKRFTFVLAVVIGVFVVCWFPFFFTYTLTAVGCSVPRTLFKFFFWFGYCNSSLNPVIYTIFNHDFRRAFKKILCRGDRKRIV
Summary of the method: (§1)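 Membranes from CHO cells stably expressing human α2A or α2C receptors (sodium butyrate-induced) incubated with 1 nM [3H]raulwolscine in 25 mM glycylglycine pH 8.0 for 60 min at 25° C, then filtered. Non-specific binding defined with 1 μM oxymetazoline (α2A) or 1 μM spiroxatrine (α2C); pIC50 from sigmoidal competition curves.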

[2] = biological target: T2, hα2C receptor (Homo sapiens, UniProt P18825); experiment: Radioligand binding experiment for α2C-adrenergic receptor ([3H]-raulwolscine); details: CHO cell membranes with human α2C receptor, [3H]raulwolscine 1 nM; read-out: pIC50 α2C (converted)
T2 construct: expressed in transfected cells; host or cells: CHO cells
T2 sequence (P18825 1-462): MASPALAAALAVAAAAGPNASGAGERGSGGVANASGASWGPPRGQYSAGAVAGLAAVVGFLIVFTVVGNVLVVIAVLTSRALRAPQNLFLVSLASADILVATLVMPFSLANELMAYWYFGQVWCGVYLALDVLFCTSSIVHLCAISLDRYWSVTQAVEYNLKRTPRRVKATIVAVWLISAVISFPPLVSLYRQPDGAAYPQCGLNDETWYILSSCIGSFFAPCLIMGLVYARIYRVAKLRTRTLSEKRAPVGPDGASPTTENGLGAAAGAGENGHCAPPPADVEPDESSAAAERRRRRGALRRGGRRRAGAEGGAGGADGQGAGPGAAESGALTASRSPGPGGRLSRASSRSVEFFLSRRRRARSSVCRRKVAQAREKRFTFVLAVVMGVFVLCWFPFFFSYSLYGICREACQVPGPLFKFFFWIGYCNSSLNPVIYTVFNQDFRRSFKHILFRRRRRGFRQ
Summary of the method: as §1

[3] = biological target: T3, h5-HT transporter (Homo sapiens, UniProt P31645); experiment: Radioligand binding experiment for 5-HT transporter ([3H]paroxetine); details: human platelet membranes, [3H]paroxetine 0.5 nM
T3 construct: Human platelet membranes (Oceanix Biosciences Corporation, Hanover, Md., USA) were thawed; tissue Oceanix Biosciences Corporation; host or cells: human platelet membranes
T3 sequence (P31645 whole entry): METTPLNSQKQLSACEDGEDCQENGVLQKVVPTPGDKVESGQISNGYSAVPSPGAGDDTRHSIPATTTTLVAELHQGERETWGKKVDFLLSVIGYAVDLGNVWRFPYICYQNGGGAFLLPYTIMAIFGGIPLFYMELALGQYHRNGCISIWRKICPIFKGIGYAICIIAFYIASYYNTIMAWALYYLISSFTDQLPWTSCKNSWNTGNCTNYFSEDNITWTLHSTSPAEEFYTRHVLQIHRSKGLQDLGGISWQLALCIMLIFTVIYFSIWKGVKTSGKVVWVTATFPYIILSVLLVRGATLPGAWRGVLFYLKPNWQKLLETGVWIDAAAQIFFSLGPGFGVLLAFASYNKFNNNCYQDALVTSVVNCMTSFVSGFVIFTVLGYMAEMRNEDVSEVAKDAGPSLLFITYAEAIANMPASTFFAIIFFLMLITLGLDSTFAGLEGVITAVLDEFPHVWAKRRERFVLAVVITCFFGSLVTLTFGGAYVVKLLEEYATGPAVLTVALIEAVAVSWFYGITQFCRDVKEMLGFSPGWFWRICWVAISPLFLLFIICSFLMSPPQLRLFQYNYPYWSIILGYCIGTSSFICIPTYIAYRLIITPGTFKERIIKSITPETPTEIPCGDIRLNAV
Summary of the method: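 Competition binding on human platelet membranes (50-100 μg protein) in 50 mM Tris-HCl, 120 mM NaCl, 5 mM KCl with 0.5 nM [3H]paroxetine, 60 min at 25 °C, filtration and scintillation counting. Non-specific binding defined with 1 μM imipramine; pIC50 from nonlinear sigmoidal fits of percent total binding.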

Row | IC50 [1] | IC50 [2] | IC50 [3] | melting point | SMILES
1 | 0.0158 µM | 0.00158 µM | 0.0158 µM | 160.6 to 172.2 °C | C/C(=C\c1ccc(F)cc1)CN1CCN(CC2ON=C3c4cc5c(cc4OCC32)NCCO5)CC1 (stereo not drawn) [Compound 90]
2 | 0.00631 µM | 0.00158 µM | 0.0316 µM | 130.4 to 146.4 °C | C/C(=C\CN1CCN(CC2ON=C3c4cc5c(cc4OCC32)NCCO5)CC1)c1ccccc1 (stereo not drawn) [Compound 91]
3 | 0.02 µM | 0.00251 µM | 0.00501 µM | 85.3 to 103.9 °C | c1ccc2cc(CN3CCN(CC4ON=C5c6cc7c(cc6OCC54)NCCO7)CC3)ccc2c1 (stereo not drawn) [Compound 92]
4 | 0.316 µM | 0.0316 µM | 0.126 µM | 186.5 to 198 °C | Clc1ccc(CN2CCN(CC3ON=C4c5cc6c(cc5OCC43)NCCO6)CC2)cc1 (stereo not drawn) [Compound 94]

Further lines, the compound ahead of its results:

Row | SMILES | IC50 [1] | IC50 [2] | IC50 [3] | melting point
5 | CC(=Cc1ccc(F)cc1)CN1CCN(CC2ON=C3c4ccc(N5CCN(Cc6ccccc6)CC5)cc4OCC32)CC1 (stereo not drawn) [Compound 80] | 0.126 µM | 0.00398 µM | 0.126 µM | 166.4 to 178.2 °C
6 | CC(=Cc1ccc(F)cc1)CN1CCN(CC2ON=C3c4ccc(N5CCN(CC=Cc6ccccc6)CC5)cc4OCC32)CC1 (stereo not drawn) [Compound 81] | 0.126 µM | 0.02 µM | 0.0631 µM | 154.9 to 160.4 °C
7 | COc1cc2c(cc1N1CCOCC1)OCC1C2=NOC1CN1CCN(CC(C)=Cc2ccccc2)CC1 (stereo not drawn) [Compound 82] | 0.00158 µM | 0.00126 µM | 0.0398 µM | 143.5 to 145.9 °C
8 | CC(=Cc1ccc(F)cc1)CN1CCN(CC2ON=C3c4ccc(N5CCOCC5)cc4OCC32)CC1 (stereo not drawn) [Compound 84] | 0.00631 µM | 0.00126 µM | 0.0251 µM | 179.2 to 188.8 °C
9 | C/C(=C\c1cccc(F)c1)CN1CCN(CC2ON=C3c4cc5c(cc4OCC32)NCCO5)CC1 (stereo not drawn) [Compound 89] | 0.00398 µM | 0.001 µM | 0.00398 µM | 145.4 to 153.1 °C
